Among the test systems are A498; CCRF-CEM; K562; M14; M19-MEL; NCI-H460; RPMI-8226; RXF 393; SF-268; SK-MEL-2; SK-MEL-5; SW-620; TK-10; KM12; SK-OV-3.
Holding throughout (experiment): inhibition of tumour cell growth, NCI panel, 48 h

Structures are written as SMILES.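 48-hour exposure; five concentrations; linearly interpolated endpoints. GI50: concentration for 50% inhibition of growth.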 The source made the active and inactive calls. Rule as the data show it: active = GI50 up to about 1.1 µM and inactive = higher.

For the compound `Cc1nc([N+](=O)[O-])cn1CC(=N)N`, the GI50 with A498, with CCRF-CEM, in the assay with K562, in the assay with M14, with M19-MEL and in the assay on NCI-H460 was > 100 µM (inactive) each time. The GI50 with RPMI-8226, in the assay on RXF 393, with SF-268, with SK-MEL-2, in the assay with SK-MEL-5 and with SW-620 was > 100 µM (inactive) in each case. Also, the GI50 with TK-10 is > 100 µM (inactive).
On to `Cc1ccc(S(=O)(=O)OCOS(=O)(=O)c2ccc(C)cc2)cc1`, for which the GI50 with CCRF-CEM is > 100 µM (inactive); with K562, > 100 µM (inactive); in the assay on KM12, > 100 µM (inactive); in the assay with M14, > 100 µM (inactive); in the assay on M19-MEL, > 100 µM (inactive); in the assay on NCI-H460 it was 58.1 µM (inactive). In addition, the GI50 in the assay with RPMI-8226, with RXF 393, in the assay on SF-268, with SK-MEL-2, in the assay with SK-MEL-5 and in the assay with SK-OV-3 was > 100 µM (inactive) each time. The GI50 in the assay with SW-620 and in the assay on TK-10 was > 100 µM (inactive) in each case.
With `O=C1Sc2sc(=S)sc2SC1c1ccccc1` (stereo not drawn), the GI50 in the assay with A498 is > 100 µM (inactive); in the assay with CCRF-CEM, 33 µM (inactive); with K562 it was 32.7 µM (inactive); in the assay on KM12 it was > 80.9 µM (inactive); in the assay with M19-MEL it was 60.4 µM (inactive); in the assay on NCI-H460, 80.7 µM (inactive). Further, the GI50 with RPMI-8226 was 46.9 µM (inactive); in the assay with RXF 393, 28.4 µM (inactive); with SF-268 it was 46.6 µM (inactive); in the assay with SK-MEL-2, > 65 µM (inactive); with SK-MEL-5, > 100 µM (inactive); in the assay with SK-OV-3, > 100 µM (inactive). In the assay on SW-620, the GI50 was 21.1 µM (inactive).
On to `CCOC(=O)N1CCc2cc(OC)c(OC)cc2/C1=C/c1ccc(OC)c(OC)c1`, for which the GI50 with A498 was 56.4 µM (inactive); in the assay with CCRF-CEM, 29 µM (inactive); in the assay with K562, 35.5 µM (inactive); in the assay with KM12 it was 45.3 µM (inactive); with M14 it was 82.8 µM (inactive); in the assay with M19-MEL, 45.9 µM (inactive). Besides, the GI50 is 19.3 µM (inactive) in the assay on RPMI-8226; 37.9 µM (inactive) with RXF 393; 79.6 µM (inactive) in the assay on SF-268; 51.6 µM (inactive) with SK-MEL-2; 20.9 µM (inactive) with SK-MEL-5; > 100 µM (inactive) in the assay with SK-OV-3. The GI50 with SW-620 was 46.2 µM (inactive); with TK-10 it was > 100 µM (inactive).
Turning to `COc1cc2c3c(c1OC)/C(=N/OS(=O)(=O)c1ccc(C)cc1)CC3N(S(=O)(=O)c1ccc(C)cc1)CC2` (stereo not drawn), the GI50 in the assay with A498, in the assay on CCRF-CEM, with K562, in the assay on KM12, in the assay with M14 and in the assay on M19-MEL was > 100 µM (inactive) each time. For the same compound, the GI50 in the assay with NCI-H460 is > 100 µM (inactive); with RPMI-8226, > 100 µM (inactive); with RXF 393 it was 53.5 µM (inactive); with SF-268, > 100 µM (inactive); in the assay with SK-MEL-5, > 100 µM (inactive); in the assay on SK-OV-3 it was > 100 µM (inactive). In addition, the GI50 with SW-620 and with TK-10 was > 100 µM (inactive) each time.
With `NC(=O)/C(=N\NC(=O)c1cc2ccccc2cc1O)C1C(=O)N(c2ccccc2)N=C1N` (stereo not drawn), the GI50 in the assay with A498 is 1.23 µM (inactive); in the assay on CCRF-CEM, 11.7 µM (inactive); in the assay with KM12, 35.6 µM (inactive); in the assay with M14, 31.5 µM (inactive); with M19-MEL, 30.6 µM (inactive); with NCI-H460, > 100 µM (inactive). For the same compound, the GI50 is 13.8 µM (inactive) in the assay with RPMI-8226; 29.3 µM (inactive) in the assay on RXF 393; 17.2 µM (inactive) in the assay with SF-268; 21.7 µM (inactive) in the assay with SK-MEL-2; 18.4 µM (inactive) in the assay on SK-MEL-5; 37.2 µM (inactive) in the assay on SW-620. In the assay with TK-10, the GI50 was > 100 µM (inactive).
As to `CN(C)C=[N+]=[N-]`, the GI50 in the assay with A498, with K562, in the assay with KM12, in the assay with M14, in the assay with M19-MEL and in the assay on NCI-H460 was > 100 µM (inactive) in each case. The GI50 in the assay on RPMI-8226, in the assay on RXF 393, with SF-268, with SK-MEL-2, with SK-MEL-5 and with SK-OV-3 was > 100 µM (inactive) in each case. For the same compound, the GI50 with SW-620 and with TK-10 was > 100 µM (inactive) throughout.
As for `CCOC(=O)Cc1ccc2c(c1O)C(=O)c1c(ccc(CC(=O)OCC)c1O)C2=O`, the GI50 in the assay on A498 is > 100 µM (inactive); in the assay with CCRF-CEM it was 59 µM (inactive); in the assay with K562, > 100 µM (inactive); with KM12 it was > 100 µM (inactive); in the assay on M14, > 100 µM (inactive); in the assay with M19-MEL, > 100 µM (inactive). Moreover, the GI50 in the assay with RPMI-8226 was > 100 µM (inactive); in the assay with RXF 393, 33 µM (inactive); in the assay on SF-268 it was > 100 µM (inactive); in the assay with SK-MEL-2, > 100 µM (inactive); with SK-MEL-5 it was 20.4 µM (inactive); in the assay with SK-OV-3 it was > 100 µM (inactive). Also, the GI50 was > 100 µM (inactive) in the assay on SW-620 and 31.9 µM (inactive) in the assay on TK-10.
With `S=P1(c2ccccc2)Nc2ccc(Cl)cc2N1` (stereo not drawn), the GI50 with A498 is > 100 µM (inactive); with CCRF-CEM, 4.45 µM (inactive); with K562, 49.3 µM (inactive); with KM12 it was 88.9 µM (inactive); with M14, 18.5 µM (inactive); in the assay with M19-MEL, 14.2 µM (inactive). The GI50 is > 100 µM (inactive) with NCI-H460; 4.68 µM (inactive) in the assay with RPMI-8226; > 100 µM (inactive) in the assay on SF-268; > 100 µM (inactive) in the assay on SK-MEL-2; > 100 µM (inactive) in the assay with SK-MEL-5; 37.5 µM (inactive) in the assay on SK-OV-3. The GI50 in the assay on SW-620 and in the assay with TK-10 was > 100 µM (inactive) each time.
As to `COc1ccccc1NC(=O)CC(=O)N1N=C(C)C(/N=N/c2ccc(S(N)(=O)=O)cc2)C1=O` (stereo not drawn), the GI50 in the assay on A498, with KM12, in the assay with M14, in the assay on M19-MEL, in the assay with NCI-H460 and in the assay on RPMI-8226 was > 100 µM (inactive) throughout. The GI50 in the assay on RXF 393, in the assay with SF-268, with SK-MEL-2, in the assay with SK-MEL-5, with SK-OV-3 and in the assay on SW-620 was > 100 µM (inactive) in each case. The GI50 in the assay with TK-10 was > 100 µM (inactive).
Regarding `O=C(O)C1=CCCc2ccc3ccccc3c21`, the GI50 is > 100 µM (inactive) in the assay with A498; > 10 µM (inactive) with CCRF-CEM; > 100 µM (inactive) with K562; > 100 µM (inactive) in the assay on KM12; > 100 µM (inactive) in the assay on M14; > 100 µM (inactive) in the assay with M19-MEL. Further, the GI50 in the assay on NCI-H460, with RPMI-8226, in the assay with RXF 393, with SF-268, in the assay with SK-MEL-2 and with SK-OV-3 was > 100 µM (inactive) throughout. Further, the GI50 with SW-620 and with TK-10 was > 100 µM (inactive) throughout.
Turning to `COc1cccc(NC(=O)CC(=O)N2N=C(N3c4ccccc4Sc4ccccc43)CC2c2ccccc2)c1` (stereo not drawn), the GI50 with A498, with KM12, in the assay on M14, in the assay with M19-MEL, in the assay with NCI-H460 and in the assay with RPMI-8226 was > 100 µM (inactive) each time. Also, the GI50 in the assay with RXF 393, with SF-268, in the assay on SK-MEL-5, with SK-OV-3, in the assay on SW-620 and in the assay with TK-10 was > 100 µM (inactive) in each case.
As to `CCNC(=O)C(O)C1(O)CCC2[C@@H]3CCC4=CC(=O)C=C[C@]4(C)C3[C@@H](O)C[C@@]21C` (stereo partly drawn), the GI50 in the assay with CCRF-CEM was 32.8 µM (inactive); in the assay on K562 it was > 91 µM (inactive); with KM12, > 100 µM (inactive); in the assay with M14 it was > 100 µM (inactive); in the assay on M19-MEL, > 100 µM (inactive); in the assay with NCI-H460, > 100 µM (inactive). Also, the GI50 is 22.4 µM (inactive) in the assay with RPMI-8226; > 100 µM (inactive) with RXF 393; > 49.4 µM (inactive) in the assay with SF-268; > 100 µM (inactive) in the assay on SK-MEL-2; > 100 µM (inactive) in the assay on SK-OV-3; > 100 µM (inactive) in the assay on SW-620. The GI50 in the assay on TK-10 is > 100 µM (inactive).
As to `OC[C@H]1O[C@@H](n2cnc3cncnc32)[C@H](O)[C@@H]1O` [NEBULARINE], the GI50 was 1.52 µM (inactive) in the assay on A498; 1.32 µM (inactive) in the assay on CCRF-CEM; 0.679 µM (active) with K562; 1.01 µM (active) with KM12; 3.27 µM (inactive) in the assay with M19-MEL; 0.593 µM (active) in the assay with NCI-H460. The GI50 with RPMI-8226 was 0.714 µM (active); in the assay on RXF 393 it was 1.31 µM (inactive); in the assay with SF-268, 1.09 µM (active); in the assay with SK-MEL-2, 1.67 µM (inactive); with SK-MEL-5, 1.67 µM (inactive); with SK-OV-3, 0.953 µM (active). Besides, the GI50 in the assay with SW-620 was 0.462 µM (active).

Values taken from ChEMBL document CHEMBL1201862, “PubChem BioAssay data set” (2004).
